Experimental data reported in PubChem BioAssay AID493250 (Broad Institute, 2011).
Activity calls are given as the source filed them.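 Rule for the calls: active = signal decrease with fitted half-maximal dose at or below ten times the highest valid tested dose; inconclusive = poor fit, or flat fit at 30 to 70% inhibition; inactive = the rest.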

Biological target: Zinc finger protein mex-5 (Caenorhabditis elegans) (UniProt Q9XUB2)
Assay: MEX-5 zinc finger-RNA interaction blockers – biochemical, fluorescence polarization, C. elegans, cherry-picked, round 3, dose response (AID 493250)
Details: purified MEX-5-MBP, FITC-TCR2 RNA fluorescence polarization

Chain of Zinc finger protein mex-5 (Caenorhabditis elegans) (Q9XUB2 whole entry, looked up): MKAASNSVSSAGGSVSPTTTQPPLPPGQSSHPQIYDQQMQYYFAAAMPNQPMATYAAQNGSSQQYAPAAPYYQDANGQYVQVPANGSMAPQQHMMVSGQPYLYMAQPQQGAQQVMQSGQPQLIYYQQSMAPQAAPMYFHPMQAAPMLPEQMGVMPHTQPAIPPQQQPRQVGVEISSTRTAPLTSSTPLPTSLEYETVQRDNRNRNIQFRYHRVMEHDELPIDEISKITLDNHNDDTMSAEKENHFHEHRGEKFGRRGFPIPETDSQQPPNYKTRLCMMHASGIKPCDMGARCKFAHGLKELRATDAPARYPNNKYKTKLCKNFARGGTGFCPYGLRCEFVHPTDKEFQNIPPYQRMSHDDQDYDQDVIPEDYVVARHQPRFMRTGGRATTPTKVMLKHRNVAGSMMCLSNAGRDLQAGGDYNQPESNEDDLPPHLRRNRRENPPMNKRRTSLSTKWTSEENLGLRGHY

SMILES | AC50
OCCCc1nc2n(n1)C(c1ccccc1Cl)C=C(c1cccs1)N2 (centres undefined) | 10.1 µM
CCCC1=NN2C(=N)/C(=C\c3ccc(SCc4ccco4)o3)C(=O)N=C2S1 | 0.98 µM
Cn1c(O)c(N=Nc2ccc(F)cc2)c2ccccc21 | 1.75 µM
CCN1C(=O)c2cccc3c(NC(=O)C4CCCCC4)ccc1c23 | 6.96 µM
COC(=O)C1=COC(C)C2CN3CCc4c([nH]c5ccccc45)C3CC12 (centres undefined) | 4.21 µM
COc1ccc(Cl)cc1CN1CCN(c2nc(C)cc(C)c2C#N)CC1 | 9.41 µM
COc1ccc(NS(=O)(=O)c2cccc(C(=O)NNC(=O)c3cc(S(N)(=O)=O)ccc3OC)c2)cc1 | > 10 µM (inactive)
COc1ccc(NC(=O)c2cccc(-c3ccc(O)cc3)c2)cn1 | 3.91 µM

Same assay, conditions: purified MEX-5-MBP, FITC-TCR2 RNA fluorescence polarization; at 10 µM (top of the series)

SMILES | activity change, negative = inhibition
O=C(Nc1nccs1)c1ccc(-c2ccc(Cl)cc2)o1 | inactive
COCCNc1ncnc2nc[nH]c12 | inactive
COc1ccc(CCn2c(=N)c(C(=O)NCC3CCCO3)cc3c(=O)n4ccccc4nc32)cc1 (centres undefined) | inactive
O=C(N/N=C/c1c(O)ccc2ccccc12)c1ccc[n+](CCO)c1 | inactive
CC(=O)Nc1ccc(-c2csc(Nc3cccc(C)n3)n2)cc1 | inactive
CCn1c(O)c(N=NC(=O)CNC(=O)/C=C/c2ccco2)c2ccccc21 | inactive
Cc1ccc(C)c(NC(=O)CCC(=O)NNC(=S)Nc2ccccc2)c1 | inactive
COc1ccc(C2c3sc(=O)[nH]c3SCC2C(N)=O)cc1 (centres undefined) | inactive
O=c1[nH]nc(CNc2ccc(Cl)cc2Cl)c2ccccc12 | inactive
COc1ccc(N=Nc2c(C)[nH][nH]c2=O)cc1 | inactive
COC(=O)c1cccc(-c2ccc(C(c3c(C)[nH][nH]c3=O)c3c(C)[nH][nH]c3=O)o2)c1 | inactive
CC1=Nc2ccccc2/C1=C\c1nc(-c2ccccc2)oc1O | inactive
N=C1C(c2nc3ccccc3[nH]2)=C(O)CN1c1ccccc1 | inactive
COCCNc1nnc(SCC(=O)NNC(=O)c2ccc([N+](=O)[O-])cc2)s1 | inactive
C/C=C(\C)CN1CCC(n2nccc2NC(=O)CCCc2ccccc2)CC1 | inactive
COC(=O)c1cc2c(-c3ccccc3)c(C)c3ccccn3c-2c1C(=O)OC | inactive
Cc1c(O)ccc(-c2[nH]ncc2-c2nc3ccccc3s2)c1O | inactive
CN1CCc2nc3sc(C(=O)NC(C)(C)C)c(N)c3cc2C1 | inactive
COc1ccc(/C=N/Nc2nc(=O)[nH]nc2C)cc1[N+](=O)[O-] | inactive
NC1=C([N+](=O)[O-])C(c2ccc3c(c2)OCO3)C2=C(CCCC2=O)O1 (centres undefined) | inactive
COc1cccc(NC(=S)NNC(=O)C(C)n2nc(C)c([N+](=O)[O-])c2C)c1 (centres undefined) | inactive

SMILES | activity change, negative = inhibition
Cc1nc2cc(C(=O)O)ccc2n1-c1ccc(F)cc1F | inactive
COc1ccc(CC(=O)NNc2ncnc3c2cnn3C)cc1OC | inactive
COc1cccc(/C=N/NC(=O)N/N=C/c2cccc(OC)c2O)c1O | inactive
CC(C)(C)N(CC#CCC(O)(c1ccccc1)c1ccccc1)CCO | inactive
CCC(COC(C)=O)Nc1nc2c([nH]1)c(=O)n(C)c(=O)n2C (centres undefined) | inactive
CC1CN(Cc2c(O)ccc3c2oc(=O)c2ccccc23)CC(C)O1 (centres undefined) | inactive
CCC(=O)NCCc1nc2ccccc2n1Cc1ccccc1 | inactive
Cc1ccc2cc(C#N)c(N3CCCN(C(=O)C4CCCO4)CC3)nc2c1C (centres undefined) | inactive
CC1(C)NC(=O)NC2(C)NC(=O)NC(C)(C)C12 (centres undefined) | inactive
CN1/C(=C\C=C(/C#N)C(=O)Nc2ccccc2F)C(C)(C)c2ccccc21 | inactive
COCc1cc(C)nc(N/N=C/c2ccc(-c3cc(C(=O)O)ccc3Cl)o2)c1C#N | inactive
O=S(=O)(O)c1nc2ccccc2n1Cc1ccc(Cl)cc1Cl | inactive
CCCCN(C(=O)c1ccc([N+](=O)[O-])o1)c1c(N)n(CCCC)c(=O)[nH]c1=O | inactive
CC(=O)Nc1ccc(/C=N\NC(=O)CNS(=O)(=O)c2ccc([N+](=O)[O-])cc2)cc1 | inactive
CN(C)C(=O)Oc1ccc2c(c1)O/C(=C\c1ccccc1)C2=O | inactive
COc1ccc(NC(=O)/C=C/c2cccc(C(F)(F)F)c2)cn1 | inactive
COc1ccc(N(CCC#N)C(=O)/C(C#N)=C/c2cccs2)cc1 | inactive
CN1CCc2c(sc(NC(=O)C3CCCN3S(=O)(=O)c3ccc(Cl)s3)c2C(N)=O)C1 (centres undefined) | inactive
COc1ccc(C2NC(=O)N(CCCC(=O)O)C(C)=C2C(=O)OCc2ccccc2)cc1 (centres undefined) | inactive
CCCNc1nc2ccccc2n2c(C)nnc12 | inactive
O=C(NC1CCSc2ccccc21)c1ccc([N+](=O)[O-])cc1 (centres undefined) | inactive

SMILES | activity change, negative = inhibition
Cc1csc(NC(=O)c2ccc(-c3ccc(Cl)cc3Cl)o2)n1 | inactive
C=CCn1c(O)c(N=NC(=S)Nc2cccc(C)c2)c2ccccc21 | inactive
CCOC(=O)c1cnc(SCC(=O)NNC(=O)c2ccco2)nc1N | inactive
O=C1c2cccc3cccc(c23)C(=O)N1Cc1ccccc1 | inactive
O=C(Nc1ccc(OCc2ccccc2)cc1)Nc1cccnc1 | inactive
CC1CN2C(c3ccc(Cl)cc3)=CSC2=N1 (centres undefined) | inactive
COc1c(O)ccc(/C=C(\C#N)c2nc3ccccc3[nH]2)c1[N+](=O)[O-] | inactive
CC(=O)c1cc(NC(=O)c2ccc([N+](=O)[O-])cc2)c(=O)oc1C | inactive
Nc1cc(C(=O)O)c(Oc2ccc(Cl)cc2Cl)cc1C(=O)O | inactive
COc1c(OC2OC(C(=O)O)C(O)C(O)C2O)cc(O)c2c(=O)cc(-c3ccccc3)oc12 (centres undefined) | inactive
N=C(N)N=Nc1c(O)[nH]c2ccc(Br)cc12 | inactive
COc1ccc(CC(=O)NNc2ncnc3c2cnn3C)cc1 | inactive
CCCc1cc(C(=O)Cc2ccc(C(=O)OCC)o2)c(O)cc1O | inactive
CC(=O)c1cc(NC(=O)c2ccc(C)cc2)c(=O)oc1C | inactive
CN=c1scc(-c2ccco2)n1/N=C/c1ccc(O)c(O)c1 | inactive
O=C(N/N=C/c1c(O)n(Cc2ccco2)c(=O)[nH]c1=O)c1ccccc1 | inactive
CCN(CC)c1ccc2nc3ccccc3[n+](CC)c2c1 | inactive
COc1ccc2nc3ccccc3nc2c1N | inactive
CCOc1cc(/C=N/NC(=O)N/N=C/c2ccc(O)c(OCC)c2)ccc1O | inactive
